Test results: ChEMBL document CHEMBL4665684, “Antibacterial and NF-κB Inhibitory Lumazine Peptides, Aspochalasin, γ-Butyrolactone Derivatives, and Cyclic Peptides from a Hawaiian Aspergillus flavipes” (J Nat Prod, 2020)
≈ marks a conversion by molar mass, not a printed value. Blank lines part the entries; values can stand above or below the compound they belong to. Calls of active or inactive are those of the source. The calls are words filed in the database; no cut-off is given here. Numbered stars: 1 amine (or outer) side, 2 acyl side, 3 side chain; on linkers, the order of the positions; unused ones are H or OH. Square brackets hold non-standard residues; d marks the D form. Peptide text beside a SMILES is read from it. X2 = CC(C)=CCc1cc([C@H](O)[C@H](N[*:1])C(=O)[*:2])ccc1O; X1 = O=C([C@@H](N[*:1])[C@@H](O)c1ccc(O)cc1)[*:2]

What was measured:
[1] = tested on: A2780; assay: Antiproliferative activity against human A2780 cells at 40 uM by SRB assay; assay type: functional, cell-based
[2] = tested on: Staphylococcus aureus; assay: Antibacterial activity against Staphylococcus aureus ATCC 43300 in presence of disulfiram; assay type: functional
[3] = tested on: Staphylococcus aureus; assay: Antibacterial activity against Staphylococcus aureus ATCC 43300 at 80 ug/ml; assay type: functional, organism-based; conditions: dose 80.0 µg/ml
[4] = Inhibition of TNFalpha-induced NFkappaB activation in HEK293 cells after 6 hrs by luciferase reporter gene assay; assay type: cell-based; conditions: Homo sapiens, HEK293, 6 h
[5] = tested on: Staphylococcus aureus; assay: Antibacterial activity against Staphylococcus aureus ATCC 43300; assay type: functional

SMILES: C[C@H](NC(=O)c1cnc2c(n1)c(=O)n(C)c(=O)n2C)C(=O)Nc1ccccc1C(=O)O
Activity [1]: inactive

SMILES: CC1=C[C@H](/C=C(\C)C[C@@H](O)[C@@H](O)/C=C/C(=O)O)[C@]2(O)C(=O)N[C@@H](CC(C)C)[C@@H]2[C@@H]1C
Activity [1]: inactive

SMILES: Cn1c(=O)c2nc(C(=O)N[C@@H](CC[S+](C)[O-])C(=O)Nc3ccccc3C(=O)O)cnc2n(C)c1=O (some centres undefined)
Activity [1]: inactive

MIC [2]: 10 µg/mL
SMILES: CC(C)=CCc1cc([C@H](O)[C@@H]2NC(=O)CNC(=O)[C@H](C(C)C)NC(=O)CNC(=O)[C@@H]3CCCN3C(=O)[C@H](Cc3c[nH]c4ccccc34)NC(=O)CNC2=O)ccc1O (cyclo(GVG[X2]GWP))
Activity [1]: inactive
Activity [3]: inactive

SMILES: COC(=O)[C@]1(Cc2ccc(O)c(CC=C(C)C)c2)OC(=O)C(OC)=C1c1ccc(O)cc1
Activity [1]: inactive

SMILES: [C-]#[N+]c1ccccc1NC(=O)[C@H](C)NC(=O)c1cnc2c(n1)c(=O)n(C)c(=O)n2C
Activity [1]: inactive

SMILES: Cn1c(=O)c2nc(C(=O)N[C@@H](CCC(N)=O)C(=O)Nc3ccccc3C(=O)O)cnc2n(C)c1=O
Activity [1]: inactive

SMILES: Cn1c(=O)c2nc(C(=O)N[C@@H](CO)C(=O)Nc3ccccc3C(=O)O)cnc2n(C)c1=O
Activity [1]: inactive

MIC [2]: 10 µg/mL
SMILES: COC1=C(c2ccc(O)cc2)[C@@H](Cc2ccc(O)cc2)OC1=O
Activity [1]: inactive
Activity [3]: inactive

SMILES: COC1=C(c2ccc(O)cc2)[C@@H](Cc2ccc(O)c(CC=C(C)C)c2)OC1=O
Activity [1]: inactive

SMILES: CC1=C[C@@H]2/C=C(\C)CCC(O)C(O)C(O)CC(=O)[C@]23C(=O)N[C@@H](CC(C)C)[C@@H]3[C@@H]1C (some centres undefined)
IC50 [4]: 3.1 µM
Activity [1]: inactive

SMILES: O=C(N[C@H](CO)[C@H](O)c1ccc([N+](=O)[O-])cc1)C(Cl)Cl [CHLORAMPHENICOL]
MIC [5]: 6.25 µg/mL (≈ 19.3 µM)
MIC [2]: 2.5 µg/mL

SMILES: C[C@H](O)C(=O)[C@@H](C)C/C=C/[C@H]1[C@@H]2O[C@]2(C)[C@@H](C)[C@H]2[C@H](Cc3ccccc3)NC(=O)[C@]21O
Activity [1]: inactive

MIC [2]: 10 µg/mL
IC50 [4]: 10.3 µM
SMILES: CC(C)[C@@H]1NC(=O)CNC(=O)[C@@H]2CCCN2C(=O)[C@H](Cc2c[nH]c3ccccc23)NC(=O)CNC(=O)[C@H]([C@@H](O)c2ccc(O)cc2)NC(=O)CNC1=O (cyclo(GVG[X1]GWP))
Activity [1]: inactive
Activity [3]: inactive

SMILES: COC(=O)c1ccccc1NC(=O)[C@H](CC[S+](C)[O-])NC(=O)c1cnc2c(n1)c(=O)n(C)c(=O)n2C (some centres undefined)
Activity [1]: inactive
